Experimental data from patent publication US11465998B2, “Therapeutic compounds and methods of use thereof” (Regents of the University of Minnesota, priority 2019, dated 2022).
“Also recorded” adds a separate entry of the source. Like-named read-outs stand apart in the source and are kept apart here.

Target: T1, human NOD2 (Homo sapiens, UniProt Q9HC29)
T1 construct: host or cells: HEK293
Assay: human NOD2 specific reporter gene assay (NF-κB induction)
Format: cell-based
Procedure: Example 5: High-throughput screens in porcine blood: Curated compound collections were obtained from the Institute for Therapeutics Discovery & Development at the University of Minnesota. Compound transfers from source (80 nL of 10 mM stocks) to assay plates were performed using an Echo 550 acoustic liquid handler (Labcyte, Sunnyvale, Calif.). For most libraries, a target final concentration of 10 μM of compound (in a final volume of 80 μL for the assay described below) was achieved. Compound plates were hermetically sealed and stored at −80° C. until used. Fresh, heparin-anticoagulated porcine blood from healthy animals were obtained under USDA supervision from Midwest Research Swine, LLC (Glencoe, Minn.). 80 μL of hematocrit-enriched porcine blood (low-speed centrifugation, followed by resuspension in DMEM supplemented with 10% fetal bovine serum) was added to compound plates and incubated for 15 h. The following day, the plates were briefly centrifuged (100 g, 10 min), and supernatants were transferred using an automated ViaFlow 384 transfer device (Integra Biosciences Corp., Hudson, N.H.) to assay plates containing of 10^6 cells/mL of each of the following NF-κB/secreted alkaline phosphatase reporter cells suspended in HEK-Blue Detection Media: human IFN-α/β, human IFN-γ, human TNF-α/IL-1β (InvivoGen, San Diego, Calif.). NF-κB translocation was assayed spectrophotometrically using an alkaline phosphatase-specific chromogen (present in HEK-detection medium as supplied by InvivoGen) at 620 nm using a SpectraMax M4 multimode microplate reader (Molecular Devices, Sunnyvale, Calif.). Z′ factors were computed for each TLR/NOD-specific signals. Hits were defined as signals >4σ (in-plate standard deviations for test compounds above negative control means), were deconvoluted in full dose-response assays in human TLR-2/-3/-4/-5/-7/-8/-9 and NOD-1/NOD-2-specific reporter cells in liquid handler-assisted assay formats as described previously. Example 6: Murine knockout cell-lines: The following reagents were obtained through BEI Resources, NIAID, NIH: the microglial cell line derived from MAL/MyD88 double knockout Mice (NR-9904), and the macrophage cell line derived from TRIF/TRAM knockout mice (NR-9568). Example 7: Human NOD1/2-specific reporter gene assays (NF-κB induction), and TLR-2/-3/-4/-5/-7/-8/-9/STING/ISG counter-screens: The induction of NF-κB was quantified using human TLR-2/-3/-4/-5/-7/-8/-9/NOD-1/NOD-2/STING/ISG-specific, rapid-throughput, liquid handler-assisted reporter gene assays as previously described by us (Wu, W. et al. J. Med. Chem. 2010, 53, 3198-3213; Shukla, N. M. et al. J. Med. Chem. 2010, 53, 4450-4465; Agnihotri, G. et al. J. Med. Chem. 2011, 54, 1490-1510 and Ukani, R. et al. Bioorg. Med. Chem. Lett. 2012, 22, 293-295). HEK293 cells stably co-transfected with the appropriate hTLR and secreted alkaline phosphatase (sAP) were maintained in HEK-Blue™ Selection medium. Stable expression of secreted alkaline phosphatase (sAP) under control of NF-κB/AP-1/IRF promoters is inducible by appropriate innate immune stimuli, and extracellular sAP in the supernatant is proportional to NF-κB/IRF induction. Reporter cells were incubated at a density of ˜10^5 cells/ml in a volume of 80 μl/well, in 384-well, flat-bottomed, cell culture-treated microtiter plates in the presence of graded concentrations of stimuli. sAP was assayed spectrophotometrically using an alkaline phosphatase-specific chromogen (present in HEK-detection medium as supplied by InvivoGen) at 620 nm. Example 8: Multiplexed immunoassays for human cytokines: Fresh human peripheral blood mononuclear cells (hPBMC) were isolated from human blood obtained by venipuncture in Cell Preparation Tubes (CPT, Beckton-Dickinson) with informed consent and as per guidelines approved by the University of Minnesota Human Subjects Experimentation Committee. Aliquots of PBMCs or THP-1 cells (10^5 cells in 100 μL/well) were stimulated for 16 h with graded concentrations of test compounds. […]

[1] = human NOD2 specific reporter gene assay, arithmetic mean of quadruplicate samples, NA* indicates inactive under the tested conditions, read-out: hNOD2 Agonistic Activity (μM), EC50

T1 sequence (Q9HC29 whole entry): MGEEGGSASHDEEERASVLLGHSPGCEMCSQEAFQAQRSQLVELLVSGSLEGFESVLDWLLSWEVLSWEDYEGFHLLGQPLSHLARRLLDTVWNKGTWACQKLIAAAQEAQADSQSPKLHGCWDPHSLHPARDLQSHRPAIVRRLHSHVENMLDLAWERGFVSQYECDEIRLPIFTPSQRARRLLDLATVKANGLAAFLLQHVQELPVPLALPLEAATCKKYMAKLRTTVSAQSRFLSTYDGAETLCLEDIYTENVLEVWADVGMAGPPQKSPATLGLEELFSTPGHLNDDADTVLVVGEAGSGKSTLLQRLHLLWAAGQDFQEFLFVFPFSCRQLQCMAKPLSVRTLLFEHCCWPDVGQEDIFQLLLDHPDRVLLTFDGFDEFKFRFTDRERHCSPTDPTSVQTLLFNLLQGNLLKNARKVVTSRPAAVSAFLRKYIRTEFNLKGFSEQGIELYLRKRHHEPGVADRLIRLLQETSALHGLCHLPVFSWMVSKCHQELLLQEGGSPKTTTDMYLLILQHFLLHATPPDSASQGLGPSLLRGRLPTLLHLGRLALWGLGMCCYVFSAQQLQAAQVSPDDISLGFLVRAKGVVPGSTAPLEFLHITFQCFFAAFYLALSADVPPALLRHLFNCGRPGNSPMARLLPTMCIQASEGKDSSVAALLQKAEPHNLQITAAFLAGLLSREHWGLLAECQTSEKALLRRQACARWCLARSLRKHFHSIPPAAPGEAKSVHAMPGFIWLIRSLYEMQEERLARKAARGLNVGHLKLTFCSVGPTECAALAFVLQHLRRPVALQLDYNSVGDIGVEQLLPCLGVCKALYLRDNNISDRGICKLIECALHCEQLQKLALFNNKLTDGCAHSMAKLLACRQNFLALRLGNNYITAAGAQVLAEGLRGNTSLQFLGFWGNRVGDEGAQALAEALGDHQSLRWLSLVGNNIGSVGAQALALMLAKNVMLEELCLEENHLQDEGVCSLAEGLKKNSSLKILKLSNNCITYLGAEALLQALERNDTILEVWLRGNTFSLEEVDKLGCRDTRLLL

Row | hNOD2-agonistic activity (in words) (human NOD2 reporter gene assay) | EC50 (human NOD2 reporter gene assay, read-out: EC50 values, human NOD2 agonistic potency) [µM] | EC50 [1] [µM] | Structure (SMILES)
1 | lower potency than the hit compound |  | 15.7 | Cc1nc2ccccc2n1-c1csc(C(N)=O)c1 [Compound 7a, 4-(2-Methyl-1H-benzo[d]imidazol-1-yl)thiophene-2-carboxamide]
2 | lower potency than the hit compound |  | 13.2 | CCc1nc2ccccc2n1-c1csc(C(N)=O)c1 [Compound 7b, 4-(2-Ethyl-1H-benzo[d]imidazol-1-yl)thiophene-2-carboxamide]
3 | lower potency than the hit compound |  | 8.26 | CCCc1nc2ccccc2n1-c1csc(C(N)=O)c1 [Compound 7c, 4-(2-Propyl-1H-benzo[d]imidazol-1-yl)thiophene-2-carboxamide]
4 |  |  | 2.07 | CCCCc1nc2ccccc2n1-c1csc(C(N)=O)c1 [Compound 7d, 4-(2-Butyl-1H-benzo[d]imidazol-1-yl)thiophene-2-carboxamide]
5 |  |  | 2.2 | CCCCCCCCc1nc2ccccc2n1-c1csc(C(N)=O)c1 [Compound 7g, 4-(2-Octyl-1H-benzo[d]imidazol-1-yl)thiophene-2-carboxamide]
6 |  |  | 3.06 | CCCCCCCCCc1nc2ccccc2n1-c1csc(C(N)=O)c1 [Compound 7h, 4-(2-Nonyl-1H-benzo[d]imidazol-1-yl)thiophene-2-carboxamide]
7 |  |  | 5.81 | CCCCCCCCCCCc1nc2ccccc2n1-c1csc(C(N)=O)c1 [Compound 7i, 4-(2-Undecyl-1H-benzo[d]imidazol-1-yl)thiophene-2-carboxamide]
8 | inactive |  |  | CCCCCCCCCCCCCc1nc2ccccc2n1-c1csc(C(N)=O)c1 [Compound 7j, 4-(2-Tridecyl-1H-benzo[d]imidazol-1-yl)thiophene-2-carboxamide]
9 | weak activity |  | 1.84 | CCCCCc1nc2ccccc2n1-c1csc(C(=O)NO)c1 [Compound 11b, N-Hydroxy-4-(2-pentyl-1H-benzo[d]imidazol-1-yl)thiophene-2-carboxamide]
10 | weak activity |  | 7.02 | CCCCCc1nc2ccccc2n1-c1csc(C(=O)NC)c1 [Compound 11c, N-Methyl-4-(2-pentyl-1H-benzo[d]imidazol-1-yl)thiophene-2-carboxamide]

More lines, now with the values behind:

Row | Structure (SMILES) | hNOD2-agonistic activity (in words) (human NOD2 reporter gene assay) | EC50 (human NOD2 reporter gene assay, read-out: EC50 values, human NOD2 agonistic potency) [µM] | EC50 [1] [µM]
11 | NC(=O)c1cc(-n2cnc3ccccc32)cs1 [Compound 2a, 4-(1H-Benzo[d]imidazol-1-yl)thiophene-2-carboxamide] | Weak hNOD2-agonistic activity | 7.26 | 
12 | NNC(=O)c1cc(-n2cnc3ccccc32)cs1 [Compound 2b, 4-(1H-Benzo[d]imidazol-1-yl)thiophene-2-carbohydrazide] | inactive |  | 
13 | O=C(NO)c1cc(-n2cnc3ccccc32)cs1 [Compound 2c, 4-(1H-Benzo[d]imidazol-1-yl)-N-hydroxythiophene-2-carboxamide] | inactive |  | 
14 | CNC(=O)c1cc(-n2cnc3ccccc32)cs1 [Compound 2d, 4-(1H-Benzo[d]imidazol-1-yl)-N-methylthiophene-2-carboxamide] | inactive |  | 
15 | CCCCNC(=O)c1cc(-n2cnc3ccccc32)cs1 [Compound 2e, 4-(1H-Benzo[d]imidazol-1-yl)-N-butylthiophene-2-carboxamide] | inactive |  | 
16 | O=C(Nc1ccccc1)c1cc(-n2cnc3ccccc32)cs1 [Compound 2f, 4-(1H-Benzo[d]imidazol-1-yl)-N-phenylthiophene-2-carboxamide] | inactive |  | 
17 | O=C(NCc1ccccc1)c1cc(-n2cnc3ccccc32)cs1 [Compound 2g, 4-(1H-Benzo[d]imidazol-1-yl)-N-benzylthiophene-2-carboxamide] | inactive |  | 
18 | O=C(NNc1ccccc1)c1cc(-n2cnc3ccccc32)cs1 [Compound 2h, 4-(1H-Benzo[d]imidazol-1-yl)-N′-phenylthiophene-2-carbohydrazide] | inactive |  | 
19 | O=C(Nc1ccncc1)c1cc(-n2cnc3ccccc32)cs1 [Compound 2i, 4-(1H-Benzo[d]imidazol-1-yl)-N-(pyridin-4-yl)thiophene-2-carboxamide] | inactive |  | 
20 | NCc1ccc(NC(=O)c2cc(-n3cnc4ccccc43)cs2)cc1 [Compound 2n, N-(4-(Aminomethyl)phenyl)-4-(1H-benzo[d]imidazol-1-yl)thiophene-2-carboxamide] | inactive |  | 
21 | NC(=O)c1cscc1-n1cnc2ccccc21 [Compound 3b, 4-(1H-Benzo[d]imidazol-1-yl)thiophene-3-carboxamide] | inactive |  | 
22 | NC(=O)c1sccc1-n1cnc2ccccc21 [Compound 3c, 3-(1H-Benzo[d]imidazol-1-yl)thiophene-2-carboxamide] | inactive |  | 
23 | NC(=O)c1cc(-n2cnc3ccccc32)c[nH]1 [Compound 3d, 4-(1H-Benzo[d]imidazol-1-yl)-1H-pyrrole-2-carboxamide] | devoid of activity |  | 
24 | NC(=O)c1coc(-n2cnc3ccccc32)n1 [Compound 3e, 2-(1H-Benzo[d]imidazol-1-yl)oxazole-4-carboxamide] | devoid of activity |  | 
25 | NC(=O)c1nc(-n2cnc3ccccc32)cs1 [Compound 3f, 4-(1H-Benzo[d]imidazol-1-yl)thiazole-2-carboxamide] | inactive; also recorded: devoid of activity |  | 
26 | NC(=O)c1csc(-n2cnc3ccccc32)n1 [Compound 3h, 2-(1H-Benzo[d]imidazol-1-yl)thiazole-4-carboxamide] | devoid of activity |  | 
27 | NC(=O)c1cnc(-n2cnc3ccccc32)s1 [Compound 3i, 2-(1H-Benzo[d]imidazol-1-yl)thiazole-5-carboxamide] | devoid of activity |  | 
28 | NC(=O)c1ccc(-n2cnc3ccccc32)cc1 [Compound 3j, 4-(1H-Benzo[d]imidazol-1-yl)benzamide] | devoid of activity |  | 
29 | NC(=O)c1cccc(-n2cnc3ccccc32)c1 [Compound 3k, 3-(1H-Benzo[d]imidazol-1-yl)benzamide] | devoid of activity |  | 
30 | NC(=O)c1cncc(-n2cnc3ccccc32)c1 [Compound 3l, 5-(1H-Benzo[d]imidazol-1-yl)nicotinamide] | devoid of activity |  | 
31 | N#Cc1cc(-n2cnc3ccccc32)cs1 [Compound 4a, 4-(1H-Benzo[d]imidazol-1-yl)thiophene-2-carbonitrile] | inactive |  | 
32 | N=C(NO)c1cc(-n2cnc3ccccc32)cs1 [Compound 4b, 4-(1H-Benzo[d]imidazol-1-yl)-N-hydroxythiophene-2-carboximidamide] | inactive |  | 
33 | CC(C)CCc1nc2ccccc2n1-c1csc(C(N)=O)c1 [Compound 7m, 4-(2-Isopentyl-1H-benzo[d]imidazol-1-yl)thiophene-2-carboxamide] | potencies very similar to the butyl analogue (7d) |  | 2.91
34 | C=C(C)CCc1nc2ccccc2n1-c1csc(C(N)=O)c1 [Compound 7n, 4-(2-(3-Methylbut-3-en-1-yl)-1H-benzo[d]imidazol-1-yl)thiophene-2-carboxamide] | potencies very similar to the butyl analogue (7d) |  | 3.24
